The results in this text go back to PMC12083136 (Microbiome, 2025).

The assay deals with ruminal bacterial urease. Kind of assay: urease activity. The class given is biochemical.

SMILES strings stand for the structures.

In turn, `C=CCS[S+]([O-])CC=C` (stereo not shown) [allicin] showed an IC50 of 126.8 ± 1.2 µM.

For orientation: IC50 means the concentration at which inhibition is half-maximal. Read a low IC50 as greater potency.
